Measurements taken from PMC11603075 (Communications Biology, 2024).

What was measured:
KDM4A1–1064 = assay: MALDI–TOF MS product formation, full length KDM4A1–1064; assay type: biochemical, human; conditions: 60 min; for % product formation: 1 µM enzyme, 10 µM peptide
Procedure: Supplementary Figure 5 H2aR3me2a is a substrate of full length KDM4A. (a) Representative MALDI–T OF
MS (60 -minute incubation) (from top to bottom) K DM4A 1–1064, KDM4A1–35 9 and KDM4E1–337 w it h H 2 a( 1–
Representative data are shown from n = 3 (independent assays). Charge state of labelled ions: [MH]+. (b)
Bar graph comparing % product format ion of H2a(1 –20)R3me2a by KDM4A1–10 64, KDM4A1–359 and KDM4E1–
33 7, analysed by MALDI–TOF MS. n = 2/3 (independent assays). Conditions: 1 µM KDM4A1–359 and KDM4E1–
(NH4)2Fe(SO4)2, and 50 mM HEPES (pH 7.5), 1 mM TCEP, 0.02% (v/v) Triton-X . […]

KDM5A = assay: MALDI–TOF MS demethylation/+16 Da assay, KDM5A; assay type: biochemical, human; conditions: 90 min
Description: Fig. 2 Histone H2a fragments are KDM5 and KDM4 substrates. […] See Supplementary Table 6 and Supplementary Fig. 2 for assay conditions and quantification, respectively. […] 0-minute MS spectrum in black, 60/90-minute spectrum in red.
MS-based screening assays with peptides and calf thymus histones were as reported; see Supplementary Table 6 for conditions. Time course assays were based on reported procedures. In brief, equal volumes of the enzyme and substrate solutions were combined to initiate the reaction; 10 µL of 2% (v/v) formic acid (HCOOH) in ddH2O or 100% methanol was added to 10 µL of the reaction mixture to quench reactions at different time points. Unless otherwise stated, time course assays were carried out in triplicate. In some cases, LC–MS was used instead of MALDI-TOF MS to avoid a MALDI matrix induced artefact with the hydroxylated product (Supplementary Fig. 16). […]
Supplementary Figure 2 Histone H2a peptide fragments are substrates of KDM4s and KDM5s.
2 for representative corresponding MALDI–TOF MS traces. Bar graphs comparing % product format ion (+16 Da and demethylation) of H2a(1–20)R3me2a by (a) K DM5 A–D (after 90 minutes) and (b) KDM4A–E ( a ft er 60 minutes), analysed by MALDI– TOF MS. n = (a) 2, (b) 3 (independent assays). See Supplementary Table 6 for assay condit ions. See Figure S13 A 1 for a positive control.
(also on this page, place not known: formation KDM5A–D (after MALDI–TOF conditions. Figure S13A1 KDM4A KDM4B KDM4C KDM4D KDM4E 80% product formation KDM5A KDM5B KDM5C KDM5D % product formation) […]
[ E nz ym e] [Peptide] [2OG] [Ascorbate] [(NH4)2F e(S O4)2] [TCEP] Buffer pH7.5 Enzyme Cognate substrate (mM) (mM) (mM) (mM) (mM) (mM) [HE PE S]
Supplementary Table 6 Summary of MS assay conditions for substrate screening. These conditions enabled efficient turnover of established substrates. Reactions were carried out at 37 °C unless otherwise st ated. […]

## Ac - SGR [ me 2a ] GKQ GGKAR AKAKT R SSR [H2a(1–20)R3me2a, H2a(1–20)R3me2a without a biotin tag]
KDM4A1–1064; replicate 1
  % product formation: 19.2569%
KDM4A1–1064; replicate 2
  % product formation: 31.6947%
KDM4A1–1064; replicate 3
  % product formation: 39.2291%
KDM4A1–1064; MALDI–TOF MS, n = 3
  –14 Da mass shift (demethylation): –14 Da mass shifts
KDM5A; replicate 1
  +16 Da (% product formation): 0%
  demethylation (% product formation): 52.427%
KDM5A; replicate 2
  +16 Da (% product formation): 0%
  demethylation (% product formation): 53.348%
